Assays:
KA induced SE [1] = assay: KA induced SE, EEG, direct injection into the hippocampus; type: in vivo, mice; settings: injected into the hippocampus, DZ 2 h after KA
Protocol: 30 or 60 min later mice were injected with KA (20 mg/kg) and 2 h later with DZ as detailed above.

KA induced SE [2] = assay: KA induced ongoing SE, EEG, treatment 2 h after KA; type: in vivo, mice
Protocol: EEG recordings and analysis. WT C57Bl/6J adult male mice (12 weeks) were anesthetized with isofluorane and implanted with EEG/EMG electrodes and allowed to recover for 7 days prior to experimentation. […] 2 h following KA administration mice were injected with a saturating concentration of diazepam (DZ) 10 mg/kg (IP) and recordings were extended for a further 60 min. […] LabChart 8 software was used for data analysis. Epileptiform activity was identified by changes in the amplitude of electrographic activity characterized by consistent changes in the power of the Fast Fourier transform (FFT) of the EEG and abnormal activity characterized by periods of rhythmic spiking lasting longer than 30 s (Moore et al., 2017, supra; Silayeva et al., 2015, supra; Sivakumaran et al., J. Neurosci. 35, 8291-8296 (2015)).
To evaluate the potential of KCC2 activators to terminate ongoing SE, the KA model described above was employed. Mice were injected with KA (20 mg/Kg; IP). […] Spectral data were then subjected to FFT and the total EEG power between 1-100 Hz of the 2 h following KA treatment (pre-drug) and 30 min following their injection (post-drug) were compared (FIG. 6B). In mice treated with DZ alone variable effects were observed, from large increases to modest reductions in EEG power, but these effects were not significant (FIG. 6C; pre=1.1±0.2×10^−6, post=4.4±7.4×10^−7 μV^2, p=0.214, n=13-14 mice). […]

[3] = test system: panel of 144 protein kinases; assay: Protein kinase panel (SelectScreen; Thermofisher); type: biochemical; settings: 144 protein kinases incl. PKC isoforms, OSR1, SPAK, WNK
Protocol: Aliquots of HEK-293 cells expressing KCC2 were exposed to 30 μM SSA, heated from 37-55° C. The remaining level of soluble native KCC2 at each temperature was measured by immunoblotting and normalized to the level seen at 37° C. which was given a value of 1. […] This panel included protein kinase C isoforms, OSR1, SPAK (STK39) and with-no-lysine kinases (WNK), all of which phosphorylate KCC2 on multiple residues to indirectly modify its activity (Kahle et al., 2013, supra; Smalley et al., 2020, supra).

KCC2 = molecular target: T1, KCC2 (Homo sapiens, UniProt Q9H2X9); assay: FLIPR Tl+ flux assay in HEK-293 cells expressing KCC2; type: cell-based; settings: saturating concentration of 3 μM, 1% BCD vehicle
T1 construct: expressed in transfected cells; host or cells: HEK-293 (ATCC CRL-1573)
T1 sequence (Q9H2X9 1-1116 isoform Q9H2X9-2): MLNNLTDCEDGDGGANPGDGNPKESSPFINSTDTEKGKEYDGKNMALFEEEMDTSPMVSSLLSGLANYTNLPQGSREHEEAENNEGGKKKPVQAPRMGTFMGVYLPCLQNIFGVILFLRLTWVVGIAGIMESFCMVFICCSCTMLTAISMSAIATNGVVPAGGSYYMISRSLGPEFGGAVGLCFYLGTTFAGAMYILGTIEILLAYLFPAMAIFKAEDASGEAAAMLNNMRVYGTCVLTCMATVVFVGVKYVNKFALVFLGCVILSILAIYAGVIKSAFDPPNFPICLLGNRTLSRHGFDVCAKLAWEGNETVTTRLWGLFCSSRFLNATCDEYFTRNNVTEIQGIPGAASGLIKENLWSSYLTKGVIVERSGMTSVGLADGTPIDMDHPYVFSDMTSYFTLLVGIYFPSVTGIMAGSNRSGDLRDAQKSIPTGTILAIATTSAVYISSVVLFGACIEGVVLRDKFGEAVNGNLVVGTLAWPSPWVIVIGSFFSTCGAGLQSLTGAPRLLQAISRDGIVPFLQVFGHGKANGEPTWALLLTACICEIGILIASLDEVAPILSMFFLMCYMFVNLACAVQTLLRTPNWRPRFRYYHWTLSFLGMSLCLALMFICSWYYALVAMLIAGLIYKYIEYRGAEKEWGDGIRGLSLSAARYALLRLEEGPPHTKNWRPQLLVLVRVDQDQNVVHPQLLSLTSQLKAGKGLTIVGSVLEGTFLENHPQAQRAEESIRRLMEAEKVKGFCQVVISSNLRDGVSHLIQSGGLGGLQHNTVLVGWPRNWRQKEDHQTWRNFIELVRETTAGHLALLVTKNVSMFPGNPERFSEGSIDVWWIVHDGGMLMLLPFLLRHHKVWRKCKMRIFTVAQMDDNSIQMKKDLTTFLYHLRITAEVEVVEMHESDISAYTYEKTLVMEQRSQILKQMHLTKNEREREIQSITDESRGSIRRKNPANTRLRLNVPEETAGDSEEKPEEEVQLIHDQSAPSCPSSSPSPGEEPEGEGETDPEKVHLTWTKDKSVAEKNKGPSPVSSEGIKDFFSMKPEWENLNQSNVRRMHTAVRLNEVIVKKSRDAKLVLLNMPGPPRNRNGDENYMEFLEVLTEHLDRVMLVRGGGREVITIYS
Protocol: A multi-tiered high-throughput screening assay was used, leveraging a proprietary library of 1.3 million small molecule compounds from AstraZeneca (Cambridge, UK) to identify chemical entities capable of activating KCC2. A single point concentration of 30 μM was used to identify potassium flux using an established thallium (TI+) influx FLIPR assay as the primary read out in HEK-293 cells overexpressing KCC2 (Cardarelli et al., Nat. Med. 23, 1394-1396 (2017); Conway et al., J Biol Chem 292, 21253-21263 (2017); Lee et al., 2022, supra).
Cell Culture and biotinylation. […]
FLIPR TI Flux assay. HEK-293 cells were washed with HBSS, and then incubated with loading buffer containing TI sensitive fluorescent dye (https://www.moleculardevices.com), 20 μM bumetanide 20 μM ouabain and 2.5 mM probenecid for 1 h at room temperature (RT) under control conditions or with drugs in the dark using a FlexStation 3 microplate reader (Molecular Devices) and imaged […] for 30 min. Stimulus buffer was added containing 5 mM K^+/0.5 mM Tl^+ and cells were imaged every 1.5 over a 190 second time course The initial rate Tl^+ uptake (Relative Fluorescence Units (RFU) per second) was determined following addition of the stimulus buffer as outlined previously (Conway et al., 2017, supra) (Lee et al., 2022, supra). […]

KA induced SE [4] = assay: Kainic acid (KA) induced SE, EEG, pretreatment; type: in vivo, mice; settings: Compound A pretreated, 2 h after KA, pre DZ; vehicle 4.2±2.4×10^−6
Source text: This model was chosen due to the similarities with patients undergoing SE, as KA-induced seizures become refractory to benzodiazepines (BDZs) within minutes (Betjemann and Lowenstein, Lancet Neurol 14, 615-624 (2015); Crawshaw and Cock, (2020a) [Seizure: Eur. J. Epilep. 75 (2020) 145-152] Seizure 80, 282; Lee et al., 2022, supra; Reddy and Kuruba, Int J Mol Sci 14, 18284-18318 (2013)).
EEG recordings and analysis. WT C57Bl/6J adult male mice (12 weeks) were anesthetized with isofluorane and implanted with EEG/EMG electrodes and allowed to recover for 7 days prior to experimentation. […] 2 h following KA administration mice were injected with a saturating concentration of diazepam (DZ) 10 mg/kg (IP) and recordings were extended for a further 60 min. […] LabChart 8 software was used for data analysis. […]
To provide quantitative insights on the effects of KA, raw EEG recordings were subject to Fast-Fourier transformation (8K FFT size, Hann (cosine-bell), 87.50% window overlap) for frequencies between 0-100 Hz 2 h after KA injection (Lee et al., 2022, supra). […]

Row | SMILES | effect of DZ on seizure parameters in pretreated mice (KA induced SE [1]) | DZ insensitivity (KA induced SE [2]; Compound A 50 mg/kg with DZ 10 mg/kg IP) | activity of kinase panel [3] | maximum potentiation (KCC2) | total EEG power (KA induced SE [4]) | mice insensitive to the effects on EEG power (KA induced SE [2]; DZ 10 mg/kg IP 2 h after KA)
1 | C[C@@H]1CN(c2nc3c(c(Nc4ccc(C5CCCCC5)cc4)n2)COC3)CCO1 [Compound A, (R)—N-(4-cyclohexylphenyl)-2-(2-methylmorpholino)-5,7-dihydrofuro[3,4-d]pyrimidin-4-amine] | significantly reduced | abolished | did not modify the activity | 90% | 6.9±3.2×10^−7 μV^2 | 
2 | CN1C(=O)CN=C(c2ccccc2)c2cc(Cl)ccc21 [DZ, diazepam, reference compound] |  |  |  |  |  | 62%

— patent publication US20260191873A1, “FUSED AMINO PYRIMIDINE COMPOUNDS FOR TREATMENT OF 22q11.2 DELETION/DUPLICATION SYNDROMES” (Ovid Therapeutics Inc., priority 2024, published 2026)
